# Literature values in US20120141434A1, “Methods for Selecting Expanded Stem Cell Populations” (Gamida Cell Ltd., priority 2009, published 2012).
# Assays:
# NOD/SCID mice = conditions: TEPA treated cultures compared to untreated cultures
# [1] = test system: cord blood-derived progenitor cells; conditions: three-week treatment of cord blood cultures supplemented with early acting cytokines
compound,measurement,setting,value
"NCCNCCNCCNCCN [TEPA, tetraethylenepentamine]",engraftment potential in NOD/SCID mice,NOD/SCID mice,increased
same,ex vivo expansion of CD34+ cells,[1],prolonged and extensive
same,"percentages of early progenitors (CD34+CD38−, CD34+CD38−Lin-)",[1],higher
